This is an account of results in patent US4855426A, “Process of preparing 1,5-epoxy-2,3,4,5-tetrahydro-1H-3-benzazepins” (Ortho Pharmaceutical Corporation, priority 1988, dated 1989).

Broadly, the inhibition in vivo is the percentage by which the read-out fell short of the control. Broadly, the IC50 is the midpoint of a concentration-inhibition curve.

SMILES strings stand for the structures. Counter-ions that a name gives are not always drawn. Like-named read-outs stand apart in the source and are kept apart here.

Assay [1] deals with acid output. In words: Gastric Secretion, inhibition of acid output in pylorus ligated rats. The class given is in vivo, male Charles River Sprague Dawley derived rats. The settings on record: Rattus norvegicus, 4 h, intraduodenal, four hours. On the procedure:
(§1) The inhibitory activity of the compounds on acid output was tested using pylorus ligation in a modification of the procedure of Shay, H., et al., Gastroenterology 26, 906 (1954). Basically, male Charles River Sprague Dawley derived rats weighing 150-300 grams were deprived of food but not water for 18-24 hours prior to use. Water was withheld during the experiment, however. The rats were weighed, anesthetized with ether and the pylorus ligated according to the method of Shay et al., supra. Treatment or vehicle control was then administered intraduodenally (i.d.). Rats were housed two/cage and sacrificed with CO2 four hours after ligation. The stomachs were removed, rinsed, and contents emptied into a graduated centrifuge tube. The tubes were centrifuged, the volume of gastric juice recorded, and any samples obviously contaminated by feces, food or blood were eliminated. A 1 ml aliquot of gastric juice was titrated with 0.1N NaOH to a pH of 7.0-7.4. The volume of gastric juice secreted, the acid concentration, and the product of the volume times the concentration, i.e., the total amount of acid secreted, were measured.

The subject of assay [2] is Lesions. In words: Cytoprotection, ethanol (necrotizing agent) induced lesions in rats. The class given is in vivo, male Charles River Sprague Dawley derived rats. The settings on record: oral, 50% EtOH one hour later. On the procedure:
The cytoprotective activity of the compounds was tested using a modification of the method of Robert, A., et al., Gastroenterology 77, 433 (1979). Basically, male Charles River Sprague Dawley derived rats weighing between 140 and 220 g were fasted overnight, but allowed water ad libitum. They were deprived of water during the experiment, however. The rats were weighed and pretreated orally with the test compound in a dose volume of 1 ml/kg. One hour later, the necrotizing agent was administered orally, usually 50% EtOH, in a dose volume of 1 ml/animal. After an additional hour, the rats were sacrificed with CO2, the stomachs removed, inflated with distilled water, opened along the greater curvature and laid out on a flat surface. The presence of mucosal bleeding and incidence of lesions were noted, and after wiping off the mucosa the presence of submucosal bleeding and incidence of lesions were also noted.

Assay [3] deals with parietal cells. In words: Isolated Parietal Cell Assay, 14C-aminopyrine accumulation in histamine stimulated parietal cells. The class given is cell-based, rabbit. The settings on record: Oryctolagus cuniculus, 20 min, read-out: IC50, inhibition of 14C-AP accumulation in the histamine stimulated parietal cell. On the procedure: The isolated parietal cell assay was conducted using the procedures of Batzri, S., et al., Biochemica et Biophysica Acta 508, 328 (1978) and Soll, A. H., Am. J. Physiol. 238, G366 (1980). Basically, parietal cells were isolated from the fundic mucosa of rabbit stomachs by a four-stage collagenase digestion process. The supernatant fraction from the last two stages of this process contain the individual parietal cells. This cell suspension was centrifuged and reconstituted in a modified Hank's buffer to contain 2-3×10^6 cells/ml. […] The accumulation was stimulated by histamine and was blocked by H2 antagonists. The cells were incubated with 0.5×10^6 cpm ^14 C-AP, with various concentrations of histamine, 1×10^-5 M isobutylmethylxanthine, and the test compound added in a 20 μl volume of buffer or DMSO. The flasks were incubated in a shaking water bath at 37° C. for 20 minutes. Two aliquots were then taken from each flask and cell pellets were collected by centrifugation. The pellets were solubilized with Protosol (New England Nuclear) and radioactivity determined by liquid scintillation spectrometry. Data is presented as the IC50, the concentration of compound required to inhibit ^14 C-AP accumulation in the histamine stimulated parietal cell by 50%.

For assay [4], the system named is Gastric Secretion. In words: Gastric Secretion, betazole stimulated, dogs with total gastric fistulas. The class given is in vivo, Female dogs. The settings on record: gastric fistula dogs. An excerpt:
This is a secondary test used to follow-up compounds which have shown gastric antisecretory activity in the four-hour pylorus ligated rat (Example 42). Female dogs were surgically prepared with total gastric fistulas and allowed to recover.

Assay [5] relates to Pepsin. In words: In Vivo Pepsin Assay, radioenzymatic, gastric juice of pylorus ligated rat. How it is done: as §1
Pepsin activity was measured by a radioenzymatic assay. An aliquot of a 1:1000 dilution of rat gastric juice was incubated with the substrate solution (containing methyl-^14 C-methylated methemoglobin and nonradioactive methemoglobin in 10 mM sodium citrate buffer, pH 3.0) for a period of ten minutes at 37° C. After this time, trichloroacetic acid was added to stop the reaction and to precipitate the unreacted substrate. After removal of the precipitate by centrifugation, an aliquot of the supernatant fraction is quantitated for radioactivity by liquid scintillation spectrometry. Rat gastric juice samples were obtained after drug administration in the pylorus ligated rat (Example 42). Data is presented as the percent inhibition of pepsin activity in drug treated gastric samples compared to enzyme activity observed for control gastric juice samples. […]

Setting [6] is: rabbit parietal cells, 37° C., 20 minutes, 1×10^-5 M isobutylmethylxanthine.

`FC(F)(F)c1cccc(C23CNCC(O2)c2ccccc23)c1` (stereo not shown) [Example 2, 1,5-Epoxy-1-[(3-trifluoromethyl)phenyl]-1,2,4,5-tetrahydro-3-benzazepin oxalate] displayed an inhibition in vivo at 25 mg/kg in assay [1] of 71%. Moreover, in assay [2] (25 mg/kg), the “% Inhibition of Lesions, Mucosa” value came out at 56% and the “% Inhibition of Lesions, Submucosa” value came out at 56%. For the same compound, in assay [3], the IC50 amounted to 3.5 µM. The “% Inhibition of Gastric Secretion” value in assay [4] (2 mg/kg (ig)) amounted to 53%. Besides, in assay [4] (40 mg/kg (route not given)), the “% Inhibition of Gastric Secretion” value came to 75%.

The compound `FC(F)(F)c1cccc(C23CN(CCCN4CCOCC4)CC(O2)c2ccccc23)c1` (stereo not shown) [Example 3, 1,5-Epoxy-3-[N-(3-morpholinopropyl)-1-[(3-trifluoromethyl)phenyl]-1,2,4,5-tetrahydro-3-benzazepin dioxalate] gave an inhibition in vivo at 25 mg/kg in assay [1] of 48%.

Turning to `FC(F)(F)c1cccc(C23CN(CCCOc4cccc(CN5CCCCC5)c4)CC(O2)c2ccccc23)c1` (stereo not shown) [Example 4, 3-[3-[[3-(1-Piperidinyl)methyl]phenoxy]propyl]-1,5-epoxy-1-(3-trifluoromethyl)phenyl-1,2,4,5-tetrahydro-3-benzazepin dioxalate monohydrate], 40 mg/kg produced 46% inhibition in vivo in assay [1]. Further, the “% Inhibition of Lesions, Mucosa” value is reported as 70% in assay [2] (10 mg/kg) and 88% in assay [2] (20 mg/kg). The “% Inhibition of Lesions, Submucosa” value turned out to be 80% in assay [2] (10 mg/kg) and 100% in assay [2] (20 mg/kg). The “% Inhibition of Pepsin Activity” value in assay [5] (40 mg/kg) amounted to 52%. Further, the IC50 in assay [3] (setting [6]) came out at 4.5 µM. In addition, the “% Inhibition of Gastric Secretion” value in assay [4] (7.3 mg/kg (iv)) stood at 85%; in assay [4] (20 mg/kg (ig)) it was 48%.

In turn, `CN(C)Cc1ccc(CSCCN2CC3OC(c4cccc(C(F)(F)F)c4)(C2)c2ccccc23)o1` (stereo not shown) [Example 5, 3-[2-[[[5-(Dimethylamino)methyl-2-furanyl]methylthio]ethyl]-1,5-epoxy-1-[3-trifluoromethyl)phenyl-1,2,4,5-tetrahydro-3-benzazepin dioxalate] yielded an inhibition in vivo at 20 mg/kg in assay [1] of 46%. Moreover, in assay [2] (10 mg/kg), the “% Inhibition of Lesions, Mucosa” value worked out at 10% and the “% Inhibition of Lesions, Submucosa” value is reported as 30%. Moreover, the “% Inhibition of Pepsin Activity” value in assay [5] (20 mg/kg) was 28-43%. The IC50 in assay [3] (setting [6]) fell in the range of 1 to 1.3 µM.

Regarding `c1ccc(C23CNCC(O2)c2ccccc23)cc1` (stereo not shown) [Example 7, 1,5-Epoxy-1-phenyl-1,2,4,5-tetrahydro-3-benzazepin], the inhibition in vivo at 50 mg/kg in assay [1] worked out at 68%.

`c1ccc(C23CN(CCCOc4cccc(CN5CCCCC5)c4)CC(O2)c2ccccc23)cc1` (stereo not shown) [Example 11, 3-[3-[[3-(1-Piperidinyl)methyl]methyl]phenoxy]propyl]-1,5-epoxy-1-phenyl-1,2,4,5-tetrahydro-3-benzazepin dioxalate hemihydrate] returned an inhibition in vivo at 40 mg/kg in assay [1] of 39%. In addition, in assay [2] (40 mg/kg), the “% Inhibition of Lesions, Mucosa” value is given as 80% and the “% Inhibition of Lesions, Submucosa” value is reported as 100%. In addition, in assay [5] (40 mg/kg), the “% Inhibition of Pepsin Activity” value was determined as 30%. The half-inhibitory concentration (IC50) in assay [3] (setting [6]) amounted to 3.5 µM.

Turning to `CN(C)Cc1ccc(CSCCN2CC3OC(c4ccccc4)(C2)c2ccccc23)o1` (stereo not shown) [Example 12, 3-[2-[[[5-(Dimethylamino)methyl-2-furanyl]methylthio]ethyl]-1,5-epoxy-1-phenyl-1,2,4,5-tetrahydro-3-benzazepin dioxalate hemihydrate], in assay [2] (10 mg/kg), the “% Inhibition of Lesions, Mucosa” value is 20% and the “% Inhibition of Lesions, Submucosa” value is on record as 11%. Also, the IC50 in assay [3] (setting [6]) was 0.25 to 0.37 µM.

In turn, `C=CCN1CC2OC(C1)c1cc(Cl)ccc12` (stereo not shown) [Example 13, 3-Allyl-7-chloro-1,5-epoxy-1,2,4,5-tetrahydro-3-benzazepin oxalate.1/4H2 O] displayed an inhibition in vivo at 50 mg/kg in assay [1] of 33%.

`Clc1ccc2c(c1)C1CNCC2O1` (stereo not shown) [Example 14, 7-Chloro-1,5-epoxy-1,2,4,5-tetrahydro-3-benzazepin oxalate.1/4H2 O] came in with an inhibition in vivo at 50 mg/kg in assay [1] of 40%.

For the compound `c1ccc(CN2CC3OC(C2)c2ccccc23)cc1` [Example 18, 3-Benzyl-1,5-epoxy-1,2,4,5-tetrahydro-3-benzazepin oxalate], in assay [1], testing at 50 mg/kg gave an inhibition in vivo of 23%.

In turn, `c1ccc2c(c1)C1CN(CCCN3CCOCC3)CC2O1` [Example 22, 1,5-Epoxy-3-[N-(3-morpholinopropyl)]-1,2,4,5-tetrahydro-3-benzazepin dioxalate] showed an inhibition in vivo at 50 mg/kg in assay [1] of 33%.

Consider `c1ccc2c(c1)C1CNCC2(C2OCCO2)O1` (stereo not shown) [Example 30, 1-(1,3-Dioxolan-2-yl)-1,5-epoxy-1,2,4,5-tetrahydro-3-benzazepin], for which at 50 mg/kg the inhibition in vivo in assay [1] was 23%.

For `COc1cc2c(cc1OC)C1CN(CCSCc3ccc(CN(C)C)o3)CC2O1` [Example 36, 3-[2-[[[5-(Dimethylamino)methyl-2-furanyl]methylthio]ethyl]-1,5-epoxy-7,8-dimethoxy-1,2,4,5-tetrahydro-3-benzazepin dioxalate monohydrate], the inhibition in vivo at 20 mg/kg in assay [1] came out at 26%. Besides, the IC50 in assay [3] (setting [6]) stood at 30 µM.
